Read-outs that look alike come from different tables or passages of the source.
Legend:
HDAC8 = biological target: T1, HDAC8 (Homo sapiens, UniProt Q9BY41); settings: cited from earlier work; for pIC50: training set composition
T1 sequence (Q9BY41 1-377): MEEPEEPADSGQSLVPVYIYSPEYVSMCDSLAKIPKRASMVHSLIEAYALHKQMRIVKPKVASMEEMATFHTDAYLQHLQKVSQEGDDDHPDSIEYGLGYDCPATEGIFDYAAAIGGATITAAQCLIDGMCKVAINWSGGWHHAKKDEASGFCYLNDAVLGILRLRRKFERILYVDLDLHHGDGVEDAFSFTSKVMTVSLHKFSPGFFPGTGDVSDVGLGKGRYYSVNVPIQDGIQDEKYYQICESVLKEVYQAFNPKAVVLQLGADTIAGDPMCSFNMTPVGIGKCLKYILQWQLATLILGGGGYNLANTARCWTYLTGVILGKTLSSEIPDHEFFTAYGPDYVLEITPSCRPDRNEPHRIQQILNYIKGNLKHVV

HDAH = biological target: T2, HDAH (Alcaligenes sp., UniProt Q70I53); settings: CTS; cited from earlier work
T2 sequence (Q70I53 1-369): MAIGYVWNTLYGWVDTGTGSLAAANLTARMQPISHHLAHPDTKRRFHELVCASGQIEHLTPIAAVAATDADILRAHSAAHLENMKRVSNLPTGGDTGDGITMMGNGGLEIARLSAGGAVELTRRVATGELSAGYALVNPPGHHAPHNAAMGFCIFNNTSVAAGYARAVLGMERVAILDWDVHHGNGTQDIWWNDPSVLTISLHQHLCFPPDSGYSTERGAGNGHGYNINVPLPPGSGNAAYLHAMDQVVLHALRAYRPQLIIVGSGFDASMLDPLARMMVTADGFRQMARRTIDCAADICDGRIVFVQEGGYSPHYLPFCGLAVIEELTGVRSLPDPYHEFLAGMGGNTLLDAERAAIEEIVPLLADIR

HDAC isoforms = experiment: HDAC inhibition profiled over several HDAC isoforms (experimental); format: biochemical, human; settings: range of pIC50 over the profiled HDAC isoforms
HDAC4 = HDAC4 (Homo sapiens, UniProt P56524); settings: cited from earlier work; for pIC50: training set composition; for IC50: training set, read-out: HDACs inhibitory activities IC50
HDAC7 = biological target: T3, HDAC7 (Homo sapiens, UniProt Q8WUI4); settings: cited from earlier work
T3 sequence (Q8WUI4 1-952): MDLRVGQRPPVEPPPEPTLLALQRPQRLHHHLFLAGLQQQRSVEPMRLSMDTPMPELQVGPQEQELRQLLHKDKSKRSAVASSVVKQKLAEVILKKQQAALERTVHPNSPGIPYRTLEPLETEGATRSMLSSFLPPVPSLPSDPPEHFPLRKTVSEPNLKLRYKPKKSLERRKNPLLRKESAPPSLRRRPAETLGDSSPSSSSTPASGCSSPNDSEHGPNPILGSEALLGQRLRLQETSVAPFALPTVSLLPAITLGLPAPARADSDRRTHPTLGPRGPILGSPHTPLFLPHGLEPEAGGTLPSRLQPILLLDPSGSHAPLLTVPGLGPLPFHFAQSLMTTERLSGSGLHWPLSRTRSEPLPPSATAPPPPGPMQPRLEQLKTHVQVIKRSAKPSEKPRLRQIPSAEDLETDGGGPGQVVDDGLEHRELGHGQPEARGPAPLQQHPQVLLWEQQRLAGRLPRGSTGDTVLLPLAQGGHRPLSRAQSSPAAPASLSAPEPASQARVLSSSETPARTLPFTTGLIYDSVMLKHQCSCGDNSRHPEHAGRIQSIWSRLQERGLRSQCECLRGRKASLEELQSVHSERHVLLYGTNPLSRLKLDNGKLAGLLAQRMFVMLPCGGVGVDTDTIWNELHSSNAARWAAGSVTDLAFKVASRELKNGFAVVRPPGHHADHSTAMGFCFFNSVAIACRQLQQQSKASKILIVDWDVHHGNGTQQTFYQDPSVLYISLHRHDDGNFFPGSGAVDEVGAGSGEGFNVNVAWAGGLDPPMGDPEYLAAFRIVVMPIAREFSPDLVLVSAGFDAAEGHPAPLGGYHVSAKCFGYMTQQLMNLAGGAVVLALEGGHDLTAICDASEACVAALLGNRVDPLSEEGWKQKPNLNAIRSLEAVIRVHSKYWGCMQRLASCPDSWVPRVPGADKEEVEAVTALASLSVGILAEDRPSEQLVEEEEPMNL

HDAC1 = HDAC1 (Homo sapiens, UniProt Q13547); settings: cited from earlier work; for Exp. pIC50: MTS inhibitors
HDAC2 = HDAC2 (Homo sapiens, UniProt Q92769); settings: cited from earlier work; for Exp. pIC50: MTS inhibitors
HDAC3 = HDAC3 (Homo sapiens, UniProt O15379); settings: cited from earlier work
HDAC6 = biological target: T4, HDAC6 (Homo sapiens, UniProt Q9UBN7); settings: cited from earlier work; for IC50: HDAC6, MTS, read-out: reported HDACs inhibitory activities IC50; for Exp. pIC50: MTS inhibitors
T4 sequence (Q9UBN7 1-1215): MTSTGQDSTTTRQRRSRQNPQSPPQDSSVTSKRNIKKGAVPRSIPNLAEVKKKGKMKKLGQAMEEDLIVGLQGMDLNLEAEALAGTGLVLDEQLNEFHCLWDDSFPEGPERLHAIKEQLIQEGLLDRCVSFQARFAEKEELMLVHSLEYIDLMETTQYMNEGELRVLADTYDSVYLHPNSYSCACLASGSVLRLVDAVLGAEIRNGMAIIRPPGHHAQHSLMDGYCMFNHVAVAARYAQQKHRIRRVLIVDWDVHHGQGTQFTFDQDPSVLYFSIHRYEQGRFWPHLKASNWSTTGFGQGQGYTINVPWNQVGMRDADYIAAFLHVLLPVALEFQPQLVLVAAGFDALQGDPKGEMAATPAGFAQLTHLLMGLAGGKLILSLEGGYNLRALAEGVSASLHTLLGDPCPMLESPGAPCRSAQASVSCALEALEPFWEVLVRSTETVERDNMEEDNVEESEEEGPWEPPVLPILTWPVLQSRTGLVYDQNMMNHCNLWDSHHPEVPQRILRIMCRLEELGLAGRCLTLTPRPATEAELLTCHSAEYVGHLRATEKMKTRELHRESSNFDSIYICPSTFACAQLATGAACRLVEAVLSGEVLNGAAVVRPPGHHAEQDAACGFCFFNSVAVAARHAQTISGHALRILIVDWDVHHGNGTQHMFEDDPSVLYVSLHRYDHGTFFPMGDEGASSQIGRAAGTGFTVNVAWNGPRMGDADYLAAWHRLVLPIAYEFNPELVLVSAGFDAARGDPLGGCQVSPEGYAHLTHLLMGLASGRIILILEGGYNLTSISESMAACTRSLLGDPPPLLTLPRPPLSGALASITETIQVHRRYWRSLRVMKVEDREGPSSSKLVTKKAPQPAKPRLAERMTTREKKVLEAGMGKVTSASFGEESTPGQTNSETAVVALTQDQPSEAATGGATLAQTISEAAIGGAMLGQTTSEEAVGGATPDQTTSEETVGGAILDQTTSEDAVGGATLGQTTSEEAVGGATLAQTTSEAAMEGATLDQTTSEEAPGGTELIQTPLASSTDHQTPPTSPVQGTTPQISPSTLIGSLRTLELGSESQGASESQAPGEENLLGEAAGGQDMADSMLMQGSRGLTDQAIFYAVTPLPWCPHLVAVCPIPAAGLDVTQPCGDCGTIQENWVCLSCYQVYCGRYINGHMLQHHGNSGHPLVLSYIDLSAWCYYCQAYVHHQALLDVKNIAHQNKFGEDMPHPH

HDAC10 = biological target: T5, HDAC10 (Homo sapiens, UniProt Q969S8); settings: cited from earlier work; for Exp. pIC50: MTS inhibitors; for pIC50exp: experimental value of modeled complex; for pIC50: training set composition
T5 sequence (Q969S8 1-669): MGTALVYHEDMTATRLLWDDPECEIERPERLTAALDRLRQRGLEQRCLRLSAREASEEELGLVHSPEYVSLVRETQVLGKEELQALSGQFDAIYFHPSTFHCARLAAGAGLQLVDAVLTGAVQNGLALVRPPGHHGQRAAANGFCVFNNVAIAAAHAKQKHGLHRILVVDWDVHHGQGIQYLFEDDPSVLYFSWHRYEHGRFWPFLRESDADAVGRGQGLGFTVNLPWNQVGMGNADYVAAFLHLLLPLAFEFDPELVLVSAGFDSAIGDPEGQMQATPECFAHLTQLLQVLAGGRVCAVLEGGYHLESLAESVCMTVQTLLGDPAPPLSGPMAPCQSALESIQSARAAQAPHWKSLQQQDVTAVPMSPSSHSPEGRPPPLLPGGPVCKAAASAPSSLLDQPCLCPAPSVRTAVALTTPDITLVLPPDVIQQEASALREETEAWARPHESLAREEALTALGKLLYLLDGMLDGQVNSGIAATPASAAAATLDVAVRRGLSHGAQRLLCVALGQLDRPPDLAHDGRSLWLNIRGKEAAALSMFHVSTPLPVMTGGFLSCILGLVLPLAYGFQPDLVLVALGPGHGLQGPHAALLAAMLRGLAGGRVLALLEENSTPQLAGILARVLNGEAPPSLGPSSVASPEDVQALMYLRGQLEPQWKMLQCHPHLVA

[1] = co-crystallized ligand, read-out: IC50
[2] = training set, read-out: HDACs inhibitory activities IC50
[3] = MTS, read-out: reported HDACs inhibitory activities IC50
[4] = HDAC6, listed with HDAC6-1 complexes
[5] = HDAC6, listed with HDAC6-2 complexes

HDAC2, sequence (Q92769 whole entry): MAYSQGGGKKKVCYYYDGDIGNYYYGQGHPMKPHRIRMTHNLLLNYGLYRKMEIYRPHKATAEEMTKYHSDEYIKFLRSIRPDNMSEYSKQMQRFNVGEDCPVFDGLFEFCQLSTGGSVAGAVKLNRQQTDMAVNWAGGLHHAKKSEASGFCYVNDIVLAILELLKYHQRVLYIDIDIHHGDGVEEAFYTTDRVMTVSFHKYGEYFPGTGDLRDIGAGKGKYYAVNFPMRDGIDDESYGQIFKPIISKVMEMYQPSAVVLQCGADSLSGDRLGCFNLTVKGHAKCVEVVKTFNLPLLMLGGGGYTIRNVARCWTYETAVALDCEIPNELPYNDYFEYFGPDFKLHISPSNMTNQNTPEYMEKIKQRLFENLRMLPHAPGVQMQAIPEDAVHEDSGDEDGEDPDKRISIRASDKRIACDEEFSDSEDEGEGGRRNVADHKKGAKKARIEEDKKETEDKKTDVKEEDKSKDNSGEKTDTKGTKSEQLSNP
HDAC1, sequence (Q13547 whole entry): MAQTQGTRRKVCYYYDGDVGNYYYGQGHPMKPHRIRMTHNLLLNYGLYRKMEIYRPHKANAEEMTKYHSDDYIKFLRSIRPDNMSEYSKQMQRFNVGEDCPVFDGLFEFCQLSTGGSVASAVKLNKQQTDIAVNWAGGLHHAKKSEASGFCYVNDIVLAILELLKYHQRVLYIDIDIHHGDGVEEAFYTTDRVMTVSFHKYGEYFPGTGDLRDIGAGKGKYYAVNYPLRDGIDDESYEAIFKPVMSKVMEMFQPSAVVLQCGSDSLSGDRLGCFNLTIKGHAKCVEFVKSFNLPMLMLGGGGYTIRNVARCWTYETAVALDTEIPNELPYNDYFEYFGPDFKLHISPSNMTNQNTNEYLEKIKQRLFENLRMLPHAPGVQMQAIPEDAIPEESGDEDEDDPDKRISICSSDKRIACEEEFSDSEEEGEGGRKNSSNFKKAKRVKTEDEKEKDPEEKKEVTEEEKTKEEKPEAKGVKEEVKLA
HDAC4, sequence (P56524 whole entry): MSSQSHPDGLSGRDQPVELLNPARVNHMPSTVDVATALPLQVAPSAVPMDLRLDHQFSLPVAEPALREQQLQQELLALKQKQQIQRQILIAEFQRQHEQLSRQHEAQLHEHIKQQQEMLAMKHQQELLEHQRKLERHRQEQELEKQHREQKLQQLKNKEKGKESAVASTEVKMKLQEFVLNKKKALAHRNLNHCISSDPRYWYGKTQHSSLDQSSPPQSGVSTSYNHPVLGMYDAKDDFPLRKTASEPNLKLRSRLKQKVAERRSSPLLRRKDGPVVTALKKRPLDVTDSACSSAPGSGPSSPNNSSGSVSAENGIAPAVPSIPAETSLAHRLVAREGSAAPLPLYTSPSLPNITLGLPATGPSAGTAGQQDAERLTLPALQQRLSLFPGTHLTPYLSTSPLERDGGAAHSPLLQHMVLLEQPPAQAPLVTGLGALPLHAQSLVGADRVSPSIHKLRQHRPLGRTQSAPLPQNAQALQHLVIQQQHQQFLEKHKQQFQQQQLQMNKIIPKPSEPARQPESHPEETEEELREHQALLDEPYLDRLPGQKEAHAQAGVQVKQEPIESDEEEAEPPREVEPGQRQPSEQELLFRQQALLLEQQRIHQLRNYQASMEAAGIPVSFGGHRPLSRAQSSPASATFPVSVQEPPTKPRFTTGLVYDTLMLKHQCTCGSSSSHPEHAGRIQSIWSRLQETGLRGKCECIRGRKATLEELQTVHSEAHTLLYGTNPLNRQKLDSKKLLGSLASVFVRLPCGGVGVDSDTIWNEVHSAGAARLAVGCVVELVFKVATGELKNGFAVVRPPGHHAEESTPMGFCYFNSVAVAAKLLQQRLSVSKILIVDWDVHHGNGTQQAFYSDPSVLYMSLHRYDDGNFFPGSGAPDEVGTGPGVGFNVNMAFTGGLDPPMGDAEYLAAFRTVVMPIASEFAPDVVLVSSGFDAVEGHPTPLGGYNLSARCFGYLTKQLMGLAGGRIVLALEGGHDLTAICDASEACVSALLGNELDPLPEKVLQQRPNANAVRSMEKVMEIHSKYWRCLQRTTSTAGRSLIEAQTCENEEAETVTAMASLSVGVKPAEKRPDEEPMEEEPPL
HDAC3, sequence (O15379 whole entry): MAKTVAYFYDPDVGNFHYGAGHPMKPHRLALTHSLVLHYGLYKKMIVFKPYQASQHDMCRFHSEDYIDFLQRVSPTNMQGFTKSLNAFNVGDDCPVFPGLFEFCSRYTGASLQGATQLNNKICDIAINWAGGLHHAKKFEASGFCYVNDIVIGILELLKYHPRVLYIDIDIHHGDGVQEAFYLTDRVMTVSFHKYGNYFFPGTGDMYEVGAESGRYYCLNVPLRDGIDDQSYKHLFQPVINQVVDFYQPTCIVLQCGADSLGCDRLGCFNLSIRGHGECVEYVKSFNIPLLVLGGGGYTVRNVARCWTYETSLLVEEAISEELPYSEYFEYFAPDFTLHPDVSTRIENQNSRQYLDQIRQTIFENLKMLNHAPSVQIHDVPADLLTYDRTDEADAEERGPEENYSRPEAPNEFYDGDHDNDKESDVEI
HDAC3, sequence (Q9Y618 395-489 partner limits assumed): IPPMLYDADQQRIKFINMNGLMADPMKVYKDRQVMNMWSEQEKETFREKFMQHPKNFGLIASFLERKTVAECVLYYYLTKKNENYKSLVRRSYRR

## 4-dimethylamino-n-(6- hydroxycarbamoyethyl) benzamide-n-hydroxy-7-(4- dimethylaminobenzoyl) aminoheptanamide [MS-344]
HDAC8; [1]
  IC50: 0.249 µM
HDAC8
  pIC50: 6.60

## N[C@H](Cc1ccc(Cl)cc1Cl)C(=O)N1CCN(C(=O)c2ccc(F)cc2F)CC1 [0DI]
HDAC8; CTS, read-out: IC50
  IC50: 0.2 µM
HDAC8; CTS
  Experimental pIC50: 6.70

## O=C(CCC1CCCC1)NO [3YP, 3-cyclopentyl-n-hydroxypropanamide]
HDAH
  Experimental pIC50: 6.54
  IC50: 0.29 µM

## Cn1cc(C(=O)Cc2ccccc2)cc1/C=C/C(=O)NO [APHA8, (2E)-N-hydroxy-3-[1-methyl-4-(phenylacetyl)-1H-pyrrol-2-yl]prop-2-enamide]
HDAC isoforms
  Bioactivity range (ΔpIC50) DpIC50: 1.87
HDAC4
  pIC50: 5.51
  IC50: 3.1 µM
HDAC7; training set composition
  pIC50: 5.51
HDAC7; [2]
  IC50: 3.1 µM

## O=C(CCCCCCC(=O)C(F)(F)F)Nc1ccccc1 [CF3, 9,9,9-trifluoro-8-oxo-n-phenylnonanamide]
HDAH
  Experimental pIC50: 4.95
  IC50: 11.2 µM

## CC(C)(C)OC(=O)Nc1ccccc1-c1ccc(NC(=O)CCCCCCC(=O)NO)cc1 [CMC-7f]
HDAC1
  Exp. pIC50: 7.24
HDAC1; [3]
  IC50: 0.057 µM
HDAC2
  Exp. pIC50: 7.13
HDAC2; [3]
  IC50: 0.074 µM
HDAC3; MTS inhibitors
  Exp. pIC50: 7.75
HDAC3; [3]
  IC50: 0.018 µM
HDAC6
  IC50: 0.011 µM
HDAC6; [4]
  Exp. pIC50: 7.96
HDAC6; [5]
  Exp. pIC50: 7.96
HDAC8; MTS inhibitors
  Exp. pIC50: 5.76
HDAC8; [3]
  IC50: 1.72 µM
HDAC10
  Exp. pIC50: 7.08
HDAC10; [3]
  IC50: 0.083 µM

## CC(C)(C)OC(=O)Nc1cccc(-c2csc(NC(=O)CCCCCCC(=O)NO)n2)c1 [CMC-25b]
HDAC2
  Exp. pIC50: 7.13
HDAC6
  IC50: 0.0002 µM
HDAC6; [4]
  Exp. pIC50: 9.70
HDAC6; [5]
  Exp. pIC50: 9.70
HDAC10
  Exp. pIC50: 8.70
HDAC10; [3]
  IC50: 0.002 µM

## CNC(=O)/C(CCCCCCC(=O)Nc1cccc(-c2ccc(Cl)nc2)c1)=N\O [JMC-23]
HDAC8; [3]
  IC50: 100 µM

## C[C@@H](NC(=O)c1ccc(C(=O)C(F)(F)F)s1)c1ccccc1 [MCL08-3d]
HDAC1
  Exp. pIC50: 6.50

## CN(c1ccc(C(=O)NO)cc1)S(=O)(=O)c1ccc(-c2ccccn2)s1 [NHB, N-hydroxy-4-{methyl[(5-pyridin-2-ylthiophen-2-yl)sulfonyl]amino}benzamide]
HDAC8; [1]
  IC50: 0.175 µM
HDAC8
  pIC50: 6.76

## CCCC(CCC)C(=O)O [VALP, valproic acid]
HDAC isoforms
  Bioactivity range (ΔpIC50) DpIC50: 0.95
HDAC1; experimental value of modeled complex
  pIC50exp: 3
HDAC1; training set composition
  pIC50: 3.00
HDAC1; [2]
  IC50: 1000 µM
HDAC10
  pIC50exp: 3
  pIC50: 3.00
HDAC10; [2]
  IC50: 1000 µM

## MS-275
HDAC isoforms
  Bioactivity range (ΔpIC50) DpIC50: 2.63

## Oxamflatin
HDAC isoforms
  Bioactivity range (ΔpIC50) DpIC50: 2.34
HDAC4
  pIC50: 7.52
  IC50: 0.03 µM
HDAC10
  pIC50exp: 7.301
  pIC50: 7.30
HDAC10; [2]
  IC50: 0.05 µM

## SCRIPTAID
HDAC isoforms
  Bioactivity range (ΔpIC50) DpIC50: 2.76

Source: patent US20160378912A1, “STRUCTURE-BASED MODELING AND TARGET-SELECTIVITY PREDICTION” (EPIGENETX, LLC, priority 2013, published 2016)
